# Source: patent US20030186967A1, “Acylresorcinol derivatives are selective vitronectin receptor inhibitors” (American Home Products Corporation, priority 1998, published 2003)
# Target: T1, Vitronectin receptor αVβ3 (Homo sapiens, UniProt P05106+P06756)
# T1 construct: expressed in transfected cells; host or cells: 512P5 cells (plasma membrane preparation)
# Assay: Vitronectin Receptor αVβ3 Binding Assay
# Conditions: read-out: VnR (IC50μM)
# T1 sequence (P06756 31-889 limits assumed): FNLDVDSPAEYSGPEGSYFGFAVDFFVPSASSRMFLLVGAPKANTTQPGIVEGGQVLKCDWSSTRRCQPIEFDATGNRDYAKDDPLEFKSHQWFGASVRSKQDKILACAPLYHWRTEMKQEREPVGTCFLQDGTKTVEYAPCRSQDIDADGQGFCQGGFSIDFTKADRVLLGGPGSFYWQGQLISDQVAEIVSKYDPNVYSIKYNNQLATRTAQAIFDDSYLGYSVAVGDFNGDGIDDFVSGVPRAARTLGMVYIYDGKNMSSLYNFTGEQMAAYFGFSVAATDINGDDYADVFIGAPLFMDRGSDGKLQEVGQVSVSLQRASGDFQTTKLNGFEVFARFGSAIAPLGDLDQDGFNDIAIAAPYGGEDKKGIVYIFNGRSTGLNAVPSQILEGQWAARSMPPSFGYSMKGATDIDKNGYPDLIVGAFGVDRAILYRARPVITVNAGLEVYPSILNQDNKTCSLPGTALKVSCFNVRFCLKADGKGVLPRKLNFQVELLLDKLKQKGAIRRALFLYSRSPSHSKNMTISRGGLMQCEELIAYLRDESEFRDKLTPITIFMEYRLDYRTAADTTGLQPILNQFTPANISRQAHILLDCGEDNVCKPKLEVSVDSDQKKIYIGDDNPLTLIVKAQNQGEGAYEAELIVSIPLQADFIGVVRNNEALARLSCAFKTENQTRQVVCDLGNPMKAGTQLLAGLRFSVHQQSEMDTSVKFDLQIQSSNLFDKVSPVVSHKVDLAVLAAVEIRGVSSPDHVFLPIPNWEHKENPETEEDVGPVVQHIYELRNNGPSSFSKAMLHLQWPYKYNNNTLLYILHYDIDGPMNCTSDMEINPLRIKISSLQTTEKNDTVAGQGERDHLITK
# T1 sequence (P06756 891-1048 partner limits assumed): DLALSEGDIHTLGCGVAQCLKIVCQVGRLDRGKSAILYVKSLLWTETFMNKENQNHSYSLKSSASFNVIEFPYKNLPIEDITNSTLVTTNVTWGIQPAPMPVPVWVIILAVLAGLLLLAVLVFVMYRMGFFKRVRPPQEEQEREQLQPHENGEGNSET
# T1 sequence (P05106 27-788): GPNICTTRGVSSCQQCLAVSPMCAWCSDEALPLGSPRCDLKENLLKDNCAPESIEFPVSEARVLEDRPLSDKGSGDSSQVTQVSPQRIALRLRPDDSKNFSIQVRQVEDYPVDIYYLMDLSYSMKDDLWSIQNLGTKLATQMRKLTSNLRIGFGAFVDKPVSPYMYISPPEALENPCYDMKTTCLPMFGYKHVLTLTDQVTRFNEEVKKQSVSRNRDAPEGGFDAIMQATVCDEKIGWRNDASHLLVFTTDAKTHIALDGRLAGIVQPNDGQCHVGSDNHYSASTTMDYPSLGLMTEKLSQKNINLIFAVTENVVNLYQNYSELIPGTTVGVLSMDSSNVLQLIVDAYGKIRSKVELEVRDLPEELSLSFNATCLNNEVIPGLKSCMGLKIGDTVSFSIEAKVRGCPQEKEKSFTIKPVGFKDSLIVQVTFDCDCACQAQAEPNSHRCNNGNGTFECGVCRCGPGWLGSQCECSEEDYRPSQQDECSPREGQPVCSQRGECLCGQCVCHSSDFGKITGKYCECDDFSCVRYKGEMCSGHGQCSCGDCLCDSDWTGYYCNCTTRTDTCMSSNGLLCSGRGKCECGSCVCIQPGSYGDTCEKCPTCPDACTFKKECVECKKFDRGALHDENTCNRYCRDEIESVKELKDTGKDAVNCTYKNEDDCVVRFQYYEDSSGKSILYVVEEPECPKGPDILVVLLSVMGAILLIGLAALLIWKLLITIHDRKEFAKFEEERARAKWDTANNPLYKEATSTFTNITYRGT
row,SMILES,IC50 [µM]
1,"COC(=O)N[C@@H](CNC(=O)c1ccc(OCCNc2ncccn2)cc1O)C(=O)O [Example 65, (2S)-3-({2-hydroxy-4-[2-(pyrimidin-2-ylamino)ethoxy]benzoyl}amino)-2-[(methoxycarbonyl)amino]propanoic acid]",100
2,"CCOC(=O)N[C@@H](CNC(=O)c1ccc(OCCNc2ncccn2)cc1O)C(=O)O [Example 66, (2S)-2-[(ethoxycarbonyl)amino]-3-({2-hydroxy-4-[2-(pyrimidin-2-ylamino)-ethoxy]benzoyl}amino)propanoic acid]",100
3,"CCCOC(=O)N[C@@H](CNC(=O)c1ccc(OCCNc2ncccn2)cc1O)C(=O)O [Example 67, (2S)-3-({2-hydroxy-4-[2-(pyrimidin-2-ylamino)ethoxy]benzoyl}amino)-2-[(propoxycarbonyl)amino]propanoic acid]",100
4,"CC(C)OC(=O)N[C@@H](CNC(=O)c1ccc(OCCNc2ncccn2)cc1O)C(=O)O [Example 68, (2S)-3-({2-hydroxy-4-[2-(pyrimidin-2-ylamino)ethoxy]benzoyl}amino)-2-[(isopropoxycarbonyl)amino]propanoic acid]",100
5,"C=CCOC(=O)N[C@@H](CNC(=O)c1ccc(OCCNc2ncccn2)cc1O)C(=O)O [Example 69, (2S)-2-{[(allyloxy)carbonyl]amino}-3-({2-hydroxy-4-[2-(pyrimidin-2-ylamino)ethoxy]benzoyl}amino)propanoic acid]",100
6,"C=CCCOC(=O)N[C@@H](CNC(=O)c1ccc(OCCNc2ncccn2)cc1O)C(=O)O [Example 70, (2S)-2-{[(but-3-enyloxy)carbonyl]amino}-3-({2-hydroxy-4-[2-(pyrimidin-2-ylamino)ethoxy]benzoyl}amino)propanoic acid]",100
7,"O=C(Nc1ccccc1)N[C@@H](CNC(=O)c1ccc(OCCNc2ncccn2)cc1O)C(=O)O [Example 71, (2S)-2-[(anilinocarbonyl)amino]-3-({2-hydroxy-4-[2-(pyrimidin-2-ylamino)ethoxy]-benzoyl}amino)propanoic acid]",> 1
8,"CC(C)(C)NC(=O)N[C@@H](CNC(=O)c1ccc(OCCNc2ncccn2)cc1O)C(=O)O [Example 72, (2S)-2-{[(tert-butylamino)carbonyl]amino}-3-({2-hydroxy-4-[2-(pyrimidin-2-ylamino)ethoxy]benzoyl}amino)propanoic acid]",> 1
9,"CCCCNC(=O)N[C@@H](CNC(=O)c1ccc(OCCNc2ncccn2)cc1O)C(=O)O [Example 73, (2S)-2-{[(butylamino)carbonyl]amino}-3-({2-hydroxy-4-[2-(pyrimidin-2-ylamino)ethoxy]benzoyl}amino)propanoic acid]",> 1
10,"Cc1ccccc1NC(=O)N[C@@H](CNC(=O)c1ccc(OCCNc2ncccn2)cc1O)C(=O)O [Example 78, (2S)-3-({2-hydroxy-4-[2-(pyrimidin-2-ylamino)ethoxy]benzoyl}amino)-2-[(2-toluidinocarbonyl)amino]propanoic acid]",> 1
11,"COc1ccccc1NC(=O)N[C@@H](CNC(=O)c1ccc(OCCNc2ncccn2)cc1O)C(=O)O [Example 79, (2S)-3-({2-hydroxy-4-[2-(pyrimidin-2-ylamino)ethoxy]benzoyl}amino)-2-{[(2-methoxyanilino)carbonyl]amino}propanoic acid]",> 1
12,"O=C(Nc1ccccc1Cl)N[C@@H](CNC(=O)c1ccc(OCCNc2ncccn2)cc1O)C(=O)O [Example 80, (2S)-2-{[(2-chloroanilino)carbonyl]amino}-3-({2-hydroxy-4-[2-(pyrimidin-2-ylamino)ethoxy]benzoyl}amino)propanoic acid]",> 1
13,"O=C(Nc1ccccc1Br)N[C@@H](CNC(=O)c1ccc(OCCNc2ncccn2)cc1O)C(=O)O [Example 81, (2S)-2-{[(2-bromoanilino)carbonyl]amino}-3-({2-hydroxy-4-[2-(pyrimidin-2-ylamino)ethoxy]benzoyl}amino)propanoic acid]",> 1
14,"O=C(Nc1ccccc1-c1ccccc1)N[C@@H](CNC(=O)c1ccc(OCCNc2ncccn2)cc1O)C(=O)O [Example 82, (2S)-2-{[([1,1′-biphenyl]-2-ylamino)carbonyl]amino}-3-({2-hydroxy-4-[2-(pyrimidin-2-ylamino)ethoxy]benzoyl}amino)propanoic acid]",> 1
15,"Cc1ccc(NC(=O)N[C@@H](CNC(=O)c2ccc(OCCNc3ncccn3)cc2O)C(=O)O)cc1 [Example 83, (2S)-3-({2-hydroxy-4-[2-(pyrimidin-2-ylamino)ethoxy]benzoyl}amino)-2-[(4-toluidinocarbonyl)amino]propanoic acid]",> 1
16,"O=C(Nc1ccc(OC(F)(F)F)cc1)N[C@@H](CNC(=O)c1ccc(OCCNc2ncccn2)cc1O)C(=O)O [Example 85, (2S)-3-({2-hydroxy-4-[2-(pyrimidin-2-ylamino)ethoxy]benzoyl}amino)-2-({[4-(trifluoromethoxy)anilino]carbonyl}amino)propanoic acid]",> 1
17,"O=C(Nc1ccc(Cl)cc1)N[C@@H](CNC(=O)c1ccc(OCCNc2ncccn2)cc1O)C(=O)O [Example 86, (2S)-2-{[(4-chloroanilino)carbonyl]amino}-3-({2-hydroxy-4-[2-(pyrimidin-2-ylamino)ethoxy]benzoyl}amino)propanoic acid]",> 1

row,SMILES,IC50 [µM]
1,"O=C(Nc1ccc(F)cc1)N[C@@H](CNC(=O)c1ccc(OCCNc2ncccn2)cc1O)C(=O)O [Example 87, (2S)-2-{[(4-fluoroanilino)carbonyl]amino}-3-({2-hydroxy-4-[2-(pyrimidin-2-ylamino)ethoxy]benzoyl}amino)propanoic acid]",> 1
2,"CC(=O)c1ccc(NC(=O)N[C@@H](CNC(=O)c2ccc(OCCNc3ncccn3)cc2O)C(=O)O)cc1 [Example 88, (2S)-2-{[(4-acetylanilino)carbonyl]amino}-3-({2-hydroxy-4-[2-(pyrimidin-2-ylamino)ethoxy]benzoyl}amino)propanoic acid]",> 1
3,"O=C(NC1CCCCC1)N[C@@H](CNC(=O)c1ccc(OCCNc2ncccn2)cc1O)C(=O)O [Example 90, (2S)-2-{[(cyclohexylamino)carbonyl]amino}-3-({2-hydroxy-4-[2-(pyrimidin-2-ylamino)ethoxy]benzoyl}amino)propanoic acid]",> 1
4,"O=C(NCc1ccccc1)N[C@@H](CNC(=O)c1ccc(OCCNc2ncccn2)cc1O)C(=O)O [Example 92, (2S)-2-{[(benzylamino)carbonyl]amino}-3-({2-hydroxy-4-[2-(pyrimidin-2-ylamino)ethoxy]benzoyl}amino)propanoic acid]",> 1
5,"O=C(NCCc1ccccc1)N[C@@H](CNC(=O)c1ccc(OCCNc2ncccn2)cc1O)C(=O)O [Example 93, (2S)-3-({2-hydroxy-4-[2-(pyrimidin-2-ylamino)ethoxy]benzoyl}amino)-2-({[(2phenylethyl)amino]carbonyl}amino)propanoic acid]",> 1
6,"CCCCCCCCNC(=O)N[C@@H](CNC(=O)c1ccc(OCCNc2ncccn2)cc1O)C(=O)O [Example 94, (2S)-3-({2-hydroxy-4-[2-(pyrimidin-2-ylamino)ethoxy]benzoyl}amino)-2-{[(octylamino)carbonyl]amino}propanoic acid]",> 1
7,CC(C)(C)COC(=O)N[C@@H](CNC(=O)c1ccc(OCCNC2=NCCN2)cc1O)C(=O)O [Example 95],0.105
8,"O=C(N[C@@H](CNC(=O)c1ccc(OCCNC2=NCCN2)cc1O)C(=O)O)OCc1ccccc1 [Example 96, (2S)-2-{[(benzyloxy)carbonyl]amino}-3-({4-[2-(4,5-dihydro-1H-imidazol-2-ylamino)ethoxy]-2-hydroxybenzoyl}amino)propanoic acid]",0.119
9,"COC(=O)N[C@@H](CNC(=O)c1ccc(OCCNC2=NCCN2)cc1O)C(=O)O [Example 97, (2S)-3-({4-[2-(4,5-dihydro-1H-imidazol-2-ylamino)ethoxy]-2-hydroxybenzoyl}-amino)-2-[(methoxycarbonyl)amino]propanoic acid]",0.77
10,"CCOC(=O)N[C@@H](CNC(=O)c1ccc(OCCNC2=NCCN2)cc1O)C(=O)O [Example 98, (2S)-3-({4-[2-(4,5-dihydro-1H-imidazol-2-ylamino)ethoxy]-2-hydroxybenzoyl}-amino)-2-[(ethoxycarbonyl)amino]propanoic acid]",0.15
11,"CCCOC(=O)N[C@@H](CNC(=O)c1ccc(OCCNC2=NCCN2)cc1O)C(=O)O [Example 99, (2S)-3-({4-[2-(4,5-dihydro-1H-imidazol-2-ylamino)ethoxy]-2-hydroxybenzoyl}-amino)-2-[(propoxycarbonyl)amino]propanoic acid]",0.088
12,"CC(C)OC(=O)N[C@@H](CNC(=O)c1ccc(OCCNC2=NCCN2)cc1O)C(=O)O [Example 100, (2S)-3-({4-[2-(4,5-dihydro-1H-imidazol-2-ylamino)ethoxy]-2-hydroxybenzoyl}-amino)-2-[(isopropoxycarbonyl)amino]propanoic acid]",0.079
13,"C=CCOC(=O)N[C@@H](CNC(=O)c1ccc(OCCNC2=NCCN2)cc1O)C(=O)O [Example 101, (2S)-2-{[(allyloxy)carbonyl]amino}-3-({4-[2-(4,5-dihydro-1H-imidazol-2-ylamino)-ethoxy]-2-hydroxybenzoyl}amino)propanoic acid]",0.094
14,"C=CCCOC(=O)N[C@@H](CNC(=O)c1ccc(OCCNC2=NCCN2)cc1O)C(=O)O [Example 102, (2S)-2-{[(but-3-enyloxy)carbonyl]amino}-3-({4-[2-(4,5-dihydro-1H-imidazol-2-ylamino)ethoxy]-2-hydroxybenzoyl}amino)propanoic acid]",0.069
15,"C#CCOC(=O)N[C@@H](CNC(=O)c1ccc(OCCNC2=NCCN2)cc1O)C(=O)O [Example 103, (2S)-3-({4-[2-(4,5-dihydro-1H-imidazol-2-ylamino)ethoxy]-2-hydroxybenzoyl}-amino)-2-{[(prop-2-ynyloxy)carbonyl]amino}propanoic acid]",0.21
16,"CCCCCCOC(=O)N[C@@H](CNC(=O)c1ccc(OCCNC2=NCCN2)cc1O)C(=O)O [Example 104, (2S)-3-({4-[2-(4,5-dihydro-1H-imidazol-2-ylamino)ethoxy]-2-hydroxybenzoyl}-amino)-2-{[(hexyloxy)carbonyl]amino}propanoic acid]",0.086
